In patent US20250186403A1 (ARIZONA BOARD OF REGENTS ON BEHALF OF THE UNIVERSITY OF …, priority 2022, published 2025):
Where “and” joins values, the source holds several entries; their conditions need not be identical. Identical values can stand only once. Like-named read-outs stand apart in the source and are kept apart here.

Tests used:
Cne cells = assay: Checkerboard assay with known antifungals; assay type: cell-based, Cryptococcus neoformans
Experimental: After adding Cne cells, the plates were incubated for 48 h. Well contents were mixed by pipette, and absorbance was read at 630 nm. […] Based on the FIC, the combinatorial effects are decided as in Table 2.

A. fumigatus = assay: MIC by microdilution method (resazurin); assay type: cell-based; conditions: Aspergillus fumigatus
Experimental: (§1) Serial double dilution of the CMN was done in the RPMI-MOPS medium. Freshly grown fungal culture from the SD agar plate was resuspended in sterile water and diluted to get 0.1 OD at 600 nm. […] The plates were incubated at 30° C. for 48 h. Plates were checked for growth by visual observation. For Afu, resazurin was added to 44 µM and incubated for 12 h at 37° C. before noting a change in color from blue to pink by live cells. MIC is defined as the minimum concentration at which there is no growth when observed visually.

Cne-H99 = assay: Efficacy in cryptococcal pulmonary infection mouse model; assay type: in vivo, Cryptococcus neoformans; BALB/c mice
Experimental: Blood samples were collected at 0, 0.5, 1, 2, 4, 8, 12, 16, 24, and 36 h after oral gavage. […] Other PK parameters are in Table 4. The values represent means±SD. […] On day 0, mice were infected with H99 (10^7 cells/mice) intranasally or mock-infected with PBS. Mice were euthanized on day 5, and lungs were dissected out, homogenized in RPMI-1640-MOPS media, and plated onto Sabouraud dextrose agar plates containing antibiotics. Plates were incubated at 30° C. for 72 h, and colonies were counted. […] VC: Vehicle control, (90% corn oil, 10% DMSO). Dpi: Days post-infection. CFU: Colony-forming units.
Efficacy studies in the mouse: The in vivo studies were done in a mouse model with the approval of IACUC, Wadsworth Center, Albany, NY. Male and female BALB/c mice 4-5-week-old were purchased from Jackson laboratory and quarantined for a week before shifting to the experimental room. The mice were grouped randomly with a male: female ratio 1:1, ears were punched as identification code. The formulation of the compound was done by dissolving the CMN in absolute DMSO and diluted in corn oil. The formulations were done daily, just before the dosing. […] Following this, the mice were anesthetized and infected with Cne-H99 cells ([…] in 30 μl PBS/mouse) intranasally. […] Mice were weighed every day, and visual observations were made for activity, movement, coat condition, etc. Food and water were ad libitum. On day 5, the mice were anesthetized and euthanized. Lung tissues were dissected out, weighed, and homogenized in 1 ml RPMI-MOPS media using a glass homogenizer. After log dilution of the tissue suspension in RPMI-MOPS, 100 μl from each dilution was plated onto SD agar plates with antibiotics (20 μg/ml penicillin, 40 μg/ml streptomycin, […], 25 μg/ml chloramphenicol). The plates were incubated at 30° C. for 3 days before counting the colonies. The counts were normalized with the weight of the lung tissue taken during the necropsy. The fungal load in the groups was compared with Student's t-test, and p<0.05 was considered as significant.

[1] = test system: C. neoformans (Cne-Mut), inteinless mutant strain; assay: MIC by microdilution method; assay type: cell-based; conditions: Cryptococcus neoformans, 48 h
Experimental: as §1

C. neoformans (Cne-WT) = assay: MIC by microdilution method; assay type: cell-based; conditions: Cryptococcus neoformans, 48 h
Experimental: as §1

C. gattii (NIH444) = assay: MIC by microdilution method; assay type: cell-based; conditions: Cryptococcus gattii, visual, 48 h, 30° C.
Experimental: as §1

C. amylolentus = assay: MIC by microdilution method; assay type: cell-based
Experimental: as §1

Cne-WT = assay: Fungistatic/fungicidal assay (MFC); assay type: cell-based, Cryptococcus neoformans
Experimental: The assay was performed by microdilution method as explained in materials and method. […] Cells in the wells were mixed by pipetting, and 30 μl of the culture taken from each well was plated onto SD agar plates. […] The MFC is the minimum drug concentration where there are no colonies. If the ratio of MFC/MIC≤4 is considered fungicidal.
Freshly grown Cne-WT colony on SD agar plate was resuspended in sterile water to give an OD600 of 0.1. This fungal suspension was further diluted at 1:500 in RPMI-MOPS media. A volume of 100 μl of the final cell suspension was added to each well in the assay plates. Additionally, 100 μl of final cell suspension was plated onto the SD agar plate to examine the actual cell count; and colonies were counted after 3 days. The assay plates were incubated at 30° C. for 48 h in a humidified incubator. The culture wells were mixed with micropipette tips, and 20 μl of the culture along with 70 μl RPMI-MOPS was plated onto the SD agar plates (100 mm) and incubated at 30° C. for 72 h before counting the colonies. […] The ratio of MFC/MIC≤4 was considered fungicidal and >4 as fungistatic.

[2] = test system: recombinant Cne-Prp8 intein; assay: Thermal shift assay; assay type: binding, Cryptococcus neoformans
Experimental: The Tm values were calculated by Thermal shift software. […] The assay was repeated three times. […]
Each treatment was done in quadruplicate. The mixture was incubated at room temperature for an hour before transferring to the QuantStudio 5 real-time PCR system (Applied Biosystems) and run with an increasing temperature from 20° C. to 90° C. The temperature at which there was 50% of the peak fluorescence (50% denaturation) was considered as Tm. The analysis was done using the Thermal Shift Assay software (Thermo Fischer Scientific). A graph was drawn using the GraphPad prism Version 9.1.0 after normalizing the fluorescent values. The treatment groups were compared with Student's t-test.

CNc1ccc2oc(C[C@H]3O[C@@]4(CC[C@H]3C)O[C@H]([C@H](C)C(=O)c3ccc[nH]3)[C@H](C)C[C@H]4C)nc2c1C(=O)O [CMN, calcimycin]
MIC (Cne cells; Cryptococcus neoformans, 48 h, read-out: MIC Alone): 1.31 µg/mL
MIC Comb (Cne cells; combination CMN + 5-Fluorocytosine, well D2): 0.65 µg/mL
MIC Comb (Cne cells; combination CMN + Amphotericin B, well E6): 0.33 µg/mL
MIC Comb (Cne cells; combination CMN + Itraconazole, well E4): 0.33 µg/mL
MIC Comb (Cne cells; combination CMN + Voriconazole, well D4): 0.65 µg/mL
MIC (A. fumigatus): > 50 µM
reduction in fungal burden vs vehicle control (Cne-H99; CMN 20 mg/Kg BW orally once daily for 5 days, day 5): 3 fold
fungal burden in the lungs (Cne-H99; CMN 20 mg/Kg BW orally once daily for 5 days, day 5, vehicle 1.8×10^8): 6.3×10^7 CFU/g lung tissue
reduction in lung-fungal load (Cne-H99; CMN 20 mg/kg body weight): 60%
MIC [1]: 25.1 µg/mL and 48 µM
MIC (C. neoformans (Cne-WT)): 1.5 µg/mL
MIC (C. neoformans (Cne-WT); Cne-WT, visual, 30° C., read-out: MIC): 3 µM
MIC (C. gattii (NIH444)): 1.5 µg/mL and 3 µM
MIC (C. amylolentus; C. amylolentus, visual, 48 h, 30° C.): > 26.1 µg/mL and > 50 µM
growth inhibition (C. amylolentus; natural inteinless cryptococcal sp. Cam): no inhibition was observed
nature of inhibition (fungistatic/fungicidal) (Cne-WT): fungistatic (>4 as fungistatic)
MFC (Cne-WT; Cryptococcus neoformans, 48 h culture, plated, colonies day 3, read-out: MFC (minimum fungicidal concentration)): > 26 µg/mL
ΔTm difference between CMN and DMSO ([2]; 1.2 µM CMN): 3 °C
Tm of CnePrp8 intein ([2]; with 1.2 µM CMN (DMSO control 50.8±0.2)): 53.8±0.2 °C
